The text below walks through data of US12606561B2, “Substituted pyrazolo[1,5-a][1,3,5]triazines as CDK inhibitors” (QURIENT CO., LTD., priority 2018, dated 2026).

What all share (assay): In vitro IC50 profile for CDKs family kinase (33PanQinase Activity Assay, ProQinase)
Format in all cases: biochemical

Assay [1] concerns the target T1, 28 CDKs family protein kinases (Homo sapiens, UniProt Q00537).
T1 construct: purchased ProQinase GmbH; host or cells: Sf9 insect cells or E. coli
Conditions: CDK17/p35NCK; read-out: CDK7 selectivity profile in CDKs family, IC50. How it is done: (§1) The IC50 profile of compound 11 was determined using 28 CDKs family protein kinases through ProQinase GmbH (Freiburg, Germany). All the protocol and materials had been provided by ProQinase GmbH. Briefly, in the process, 90 μl H2O were added to each well of a compound dilution plate. To minimize potential precipitation, the H2O was added to the plate only a few minutes before the transfer of the compound solutions into the assay plates. The plate was shaken thoroughly, resulting in a “compound dilution plate/10% DMSO”. The compound dilution plate(s) were discarded at the end of the working day. For the assays (see below), 5 μl solution from each well of the compound dilution plate were transferred into the assay plates. The final volume of the assay was 50 μl. All compounds were tested at 10 final assay concentrations in the range from 1×10^−05 M to 3×10^−10 M. The final DMSO concentration in the reaction cocktails was 1% in all cases. All protein kinases provided by ProQinase were expressed in Sf9 insect cells or in E. coli as recombinant GST-fusion proteins or His-tagged proteins, either as full-length or enzymatically active fragments. All kinases were produced from human cDNAs and purified by either GSH affinity chromatography or immobilized metal affinity chromatography. The purity of the protein kinases was examined by SDS-PAGE/Coomassie staining, the identity was checked by mass spectroscopy. Kinases from external vendors, Carna Biosciences Inc.; Invitrogen Corp.; and Millipore Corp., were expressed, purified and quality-controlled by virtue of the vendors readings. A radiometric protein kinase assay (33PanQinase® Activity Assay) was used for measuring the kinase activity of the 28 protein kinases. All kinase assays were performed in 96-well FlashPlates™ from PerkinElmer (Boston, MA, USA) in a 50 μl reaction volume. The reaction cocktails were incubated at 30° C. for 60 minutes. The reaction was stopped with 50 μl of 2% (v/v) H3PO4, plates were aspirated and washed two times with 200 μl 0.9% (w/v) NaCl. Incorporation of ^33Pi was determined with a microplate scintillation counter (Microbeta, Wallac). All assays were performed with a BeckmanCoulter/SAGIAN™ Core System. As part of the data evaluation the low control value from a particular plate was subtracted from the high control value as well as from all 80 “compound values” of the corresponding plate. The residual activity (in %) for each well of a particular plate was calculated by using the following formula: Res. Activity (%)=100×[(cpm of compound−low control)/(high control−low control)].

Assay [2] addresses T2, 28 CDKs family protein kinases (Homo sapiens, UniProt Q00526).
T2 construct: purchased ProQinase GmbH; host or cells: Sf9 insect cells or E. coli
As to conditions: read-out: CDK7 selectivity profile in CDKs family, IC50. How it is done:
as §1

Assay [3] addresses T3, 28 CDKs family protein kinases (Homo sapiens, UniProt Q07002).
T3 construct: purchased ProQinase GmbH; host or cells: Sf9 insect cells or E. coli
As to conditions: CDK18/CycY; read-out: CDK7 selectivity profile in CDKs family, IC50. How it is done: as §1

The target of assay [4] is T4, 28 CDKs family protein kinases (Homo sapiens, UniProt Q00536).
T4 construct: purchased ProQinase GmbH; host or cells: Sf9 insect cells or E. coli
As to conditions: CDK16/CycY; read-out: CDK7 selectivity profile in CDKs family, IC50. Here is the method: as §1

For assay [5], the target named is T5, 28 CDKs family protein kinases (Homo sapiens, UniProt P50750).
T5 construct: purchased ProQinase GmbH; host or cells: Sf9 insect cells or E. coli
Conditions: read-out: CDK7 selectivity profile in CDKs family, IC50. How it is done:
as §1

For assay [6], the target named is T6, 28 CDKs family protein kinases (Homo sapiens, UniProt Q9BWU1).
T6 construct: purchased ProQinase GmbH; host or cells: Sf9 insect cells or E. coli
Conditions: CDK19/CycC; read-out: CDK7 selectivity profile in CDKs family, IC50. Here is the method: as §1

Assay [7] has as its target T7, 28 CDKs family protein kinases (Homo sapiens, UniProt Q8IZL9).
T7 construct: purchased ProQinase GmbH; host or cells: Sf9 insect cells or E. coli
As to conditions: read-out: CDK7 selectivity profile in CDKs family, IC50. Here is the method:
as §1

The target of assay [8] is T8, 28 CDKs family protein kinases (Homo sapiens, UniProt Q9NYV4).
T8 construct: purchased ProQinase GmbH; host or cells: Sf9 insect cells or E. coli
As to conditions: CDK12wt/CycK; read-out: CDK7 selectivity profile in CDKs family, IC50. Here is the method: as §1

The target in assay [9] is T9, 28 CDKs family protein kinases (Homo sapiens, UniProt P24941).
T9 construct: purchased ProQinase GmbH; host or cells: Sf9 insect cells or E. coli
As to conditions: read-out: CDK7 selectivity profile in CDKs family, IC50. Here is the method: as §1

The target in assay [10] is T10, 28 CDKs family protein kinases (Homo sapiens, UniProt P50613).
T10 construct: purchased ProQinase GmbH; host or cells: Sf9 insect cells or E. coli
As to conditions: CDK7/CycH/MAT1; read-out: CDK7 selectivity profile in CDKs family, IC50. Here is the method:
as §1

Assay [11] deals with T11, 28 CDKs family protein kinases (Homo sapiens, UniProt Q00534).
T11 construct: purchased ProQinase GmbH; host or cells: Sf9 insect cells or E. coli
Conditions: read-out: CDK7 selectivity profile in CDKs family, IC50. Here is the method:
as §1

Molecules are shown by their SMILES. Like-named read-outs stand apart in the source and are kept apart here.

T4 sequence (Q00536 whole entry): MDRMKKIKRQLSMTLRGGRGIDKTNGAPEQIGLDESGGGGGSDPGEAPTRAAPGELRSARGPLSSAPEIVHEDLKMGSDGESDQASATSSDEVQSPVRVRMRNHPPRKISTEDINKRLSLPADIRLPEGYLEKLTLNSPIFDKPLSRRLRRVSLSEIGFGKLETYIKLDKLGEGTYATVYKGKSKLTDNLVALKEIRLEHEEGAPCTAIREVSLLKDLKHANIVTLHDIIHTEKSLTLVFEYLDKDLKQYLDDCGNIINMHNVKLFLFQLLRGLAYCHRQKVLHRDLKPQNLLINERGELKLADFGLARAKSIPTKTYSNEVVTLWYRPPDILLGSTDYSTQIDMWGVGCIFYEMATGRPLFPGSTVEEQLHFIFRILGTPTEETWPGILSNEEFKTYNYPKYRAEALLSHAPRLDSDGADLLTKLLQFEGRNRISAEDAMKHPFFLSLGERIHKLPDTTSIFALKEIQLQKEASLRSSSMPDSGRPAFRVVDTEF
T4 sequence (Q8ND76 whole entry partner): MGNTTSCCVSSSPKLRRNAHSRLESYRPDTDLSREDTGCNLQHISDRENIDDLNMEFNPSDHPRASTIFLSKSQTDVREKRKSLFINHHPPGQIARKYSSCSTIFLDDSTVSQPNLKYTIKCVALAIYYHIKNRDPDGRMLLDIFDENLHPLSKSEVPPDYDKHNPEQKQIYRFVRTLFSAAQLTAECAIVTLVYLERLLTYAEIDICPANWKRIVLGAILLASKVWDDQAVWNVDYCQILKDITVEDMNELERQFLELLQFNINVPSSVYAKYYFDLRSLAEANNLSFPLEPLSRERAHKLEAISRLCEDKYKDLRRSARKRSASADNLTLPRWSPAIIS
T3 sequence (Q07002 whole entry): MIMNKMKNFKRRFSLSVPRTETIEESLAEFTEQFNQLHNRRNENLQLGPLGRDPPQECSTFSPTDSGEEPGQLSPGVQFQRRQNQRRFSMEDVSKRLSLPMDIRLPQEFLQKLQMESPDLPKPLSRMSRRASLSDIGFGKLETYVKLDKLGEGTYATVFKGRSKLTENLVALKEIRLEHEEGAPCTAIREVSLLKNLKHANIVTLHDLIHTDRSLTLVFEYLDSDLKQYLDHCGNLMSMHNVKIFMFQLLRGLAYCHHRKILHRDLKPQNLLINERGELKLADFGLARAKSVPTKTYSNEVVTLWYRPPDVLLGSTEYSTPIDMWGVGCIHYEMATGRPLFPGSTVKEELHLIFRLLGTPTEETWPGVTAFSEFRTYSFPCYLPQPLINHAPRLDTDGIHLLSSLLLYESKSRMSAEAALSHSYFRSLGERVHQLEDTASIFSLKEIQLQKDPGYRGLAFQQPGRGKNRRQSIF
T3 sequence (Q8ND76 whole entry partner): as the sequence (Q8ND76 whole entry partner) above
T2 sequence (Q00526 whole entry): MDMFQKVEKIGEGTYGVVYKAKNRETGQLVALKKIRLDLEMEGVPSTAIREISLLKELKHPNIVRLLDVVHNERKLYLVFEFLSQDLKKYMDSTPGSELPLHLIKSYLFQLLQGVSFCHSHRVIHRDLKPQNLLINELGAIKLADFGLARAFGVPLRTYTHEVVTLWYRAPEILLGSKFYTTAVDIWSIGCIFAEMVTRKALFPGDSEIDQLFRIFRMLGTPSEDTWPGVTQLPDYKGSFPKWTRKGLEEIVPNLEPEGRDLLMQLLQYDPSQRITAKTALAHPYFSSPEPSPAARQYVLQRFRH
T2 sequence (P24863 whole entry partner): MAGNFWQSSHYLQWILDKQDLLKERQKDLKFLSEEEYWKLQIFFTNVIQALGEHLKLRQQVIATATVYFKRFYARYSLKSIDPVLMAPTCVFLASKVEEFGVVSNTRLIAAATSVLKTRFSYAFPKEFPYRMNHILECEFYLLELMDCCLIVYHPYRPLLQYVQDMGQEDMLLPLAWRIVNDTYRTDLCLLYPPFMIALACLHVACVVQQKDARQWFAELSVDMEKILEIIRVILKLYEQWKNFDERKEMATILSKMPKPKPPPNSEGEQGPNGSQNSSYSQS
T8 sequence (Q9NYV4 whole entry): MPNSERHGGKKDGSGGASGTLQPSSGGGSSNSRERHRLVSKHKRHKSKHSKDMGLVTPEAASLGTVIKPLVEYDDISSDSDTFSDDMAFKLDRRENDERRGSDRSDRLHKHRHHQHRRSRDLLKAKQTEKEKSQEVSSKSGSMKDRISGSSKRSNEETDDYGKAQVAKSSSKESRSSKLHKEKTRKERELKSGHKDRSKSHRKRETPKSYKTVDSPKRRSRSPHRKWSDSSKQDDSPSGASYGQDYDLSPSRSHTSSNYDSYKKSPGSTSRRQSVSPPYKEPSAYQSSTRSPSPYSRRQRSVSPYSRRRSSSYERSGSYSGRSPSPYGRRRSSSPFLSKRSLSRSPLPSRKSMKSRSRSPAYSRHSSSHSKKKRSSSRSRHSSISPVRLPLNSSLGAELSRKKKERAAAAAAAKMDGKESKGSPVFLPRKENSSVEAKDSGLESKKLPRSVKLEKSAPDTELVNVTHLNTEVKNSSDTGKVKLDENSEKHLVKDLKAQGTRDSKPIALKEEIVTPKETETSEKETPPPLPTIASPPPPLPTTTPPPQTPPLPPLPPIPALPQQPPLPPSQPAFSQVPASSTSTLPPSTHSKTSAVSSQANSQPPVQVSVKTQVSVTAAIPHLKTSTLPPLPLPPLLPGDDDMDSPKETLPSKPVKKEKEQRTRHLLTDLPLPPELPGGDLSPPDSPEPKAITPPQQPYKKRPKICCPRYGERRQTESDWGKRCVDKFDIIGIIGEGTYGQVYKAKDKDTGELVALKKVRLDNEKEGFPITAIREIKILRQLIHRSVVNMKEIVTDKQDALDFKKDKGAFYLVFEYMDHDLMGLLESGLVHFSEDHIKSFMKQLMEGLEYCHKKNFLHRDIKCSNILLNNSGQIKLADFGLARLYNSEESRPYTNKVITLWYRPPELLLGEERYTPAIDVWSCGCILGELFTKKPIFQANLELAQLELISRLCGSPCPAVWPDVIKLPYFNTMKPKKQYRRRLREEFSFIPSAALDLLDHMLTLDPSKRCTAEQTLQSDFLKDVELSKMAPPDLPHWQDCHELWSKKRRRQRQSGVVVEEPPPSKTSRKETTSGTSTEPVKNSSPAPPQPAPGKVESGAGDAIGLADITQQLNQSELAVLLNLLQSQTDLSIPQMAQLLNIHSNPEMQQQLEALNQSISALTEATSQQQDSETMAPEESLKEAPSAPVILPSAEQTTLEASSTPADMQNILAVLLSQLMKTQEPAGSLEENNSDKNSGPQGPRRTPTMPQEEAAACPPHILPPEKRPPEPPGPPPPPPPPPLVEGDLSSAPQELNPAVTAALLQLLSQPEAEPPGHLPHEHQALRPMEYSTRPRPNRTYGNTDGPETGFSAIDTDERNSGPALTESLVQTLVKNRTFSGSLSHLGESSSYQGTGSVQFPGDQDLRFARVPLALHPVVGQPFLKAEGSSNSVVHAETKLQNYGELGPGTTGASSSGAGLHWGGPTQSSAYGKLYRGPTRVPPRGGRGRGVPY
T8 sequence (O75909 whole entry partner): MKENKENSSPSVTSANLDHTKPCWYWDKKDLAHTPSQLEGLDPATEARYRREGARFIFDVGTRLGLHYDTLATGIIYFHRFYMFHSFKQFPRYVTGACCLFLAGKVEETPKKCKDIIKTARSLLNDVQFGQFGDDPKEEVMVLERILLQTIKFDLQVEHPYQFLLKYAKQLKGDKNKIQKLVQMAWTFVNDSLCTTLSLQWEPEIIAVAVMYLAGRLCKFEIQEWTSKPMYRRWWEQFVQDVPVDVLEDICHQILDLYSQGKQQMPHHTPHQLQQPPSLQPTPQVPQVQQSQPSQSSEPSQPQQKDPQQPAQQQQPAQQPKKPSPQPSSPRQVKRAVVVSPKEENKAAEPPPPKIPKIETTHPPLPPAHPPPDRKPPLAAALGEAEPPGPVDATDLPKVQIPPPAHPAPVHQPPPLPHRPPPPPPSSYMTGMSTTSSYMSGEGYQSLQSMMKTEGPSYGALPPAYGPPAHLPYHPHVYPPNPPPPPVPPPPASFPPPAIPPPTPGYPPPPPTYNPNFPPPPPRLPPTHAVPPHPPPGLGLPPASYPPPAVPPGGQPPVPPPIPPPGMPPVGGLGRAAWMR
T1 sequence (Q00537 whole entry): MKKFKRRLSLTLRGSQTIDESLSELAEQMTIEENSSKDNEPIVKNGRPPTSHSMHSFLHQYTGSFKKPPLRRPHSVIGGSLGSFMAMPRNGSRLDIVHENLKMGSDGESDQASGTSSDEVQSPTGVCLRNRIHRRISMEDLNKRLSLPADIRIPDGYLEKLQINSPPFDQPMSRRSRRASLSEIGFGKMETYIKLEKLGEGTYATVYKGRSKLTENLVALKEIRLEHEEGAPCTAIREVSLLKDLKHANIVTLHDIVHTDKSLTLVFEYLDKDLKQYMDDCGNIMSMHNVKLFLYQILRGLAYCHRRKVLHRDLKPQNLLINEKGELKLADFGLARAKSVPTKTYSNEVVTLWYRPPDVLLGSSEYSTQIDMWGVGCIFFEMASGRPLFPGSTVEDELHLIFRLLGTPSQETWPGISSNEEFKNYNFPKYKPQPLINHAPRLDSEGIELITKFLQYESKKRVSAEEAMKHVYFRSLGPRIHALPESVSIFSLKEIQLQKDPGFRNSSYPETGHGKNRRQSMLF
T1 sequence (Q15078 whole entry partner): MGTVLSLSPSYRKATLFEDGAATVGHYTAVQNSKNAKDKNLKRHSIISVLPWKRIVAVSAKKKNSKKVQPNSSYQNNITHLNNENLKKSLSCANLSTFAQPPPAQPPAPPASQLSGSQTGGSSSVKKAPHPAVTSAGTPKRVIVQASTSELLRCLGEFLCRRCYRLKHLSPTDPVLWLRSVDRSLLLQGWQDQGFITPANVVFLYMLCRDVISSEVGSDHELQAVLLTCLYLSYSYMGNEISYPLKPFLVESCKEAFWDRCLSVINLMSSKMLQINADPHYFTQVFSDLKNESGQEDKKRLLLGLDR

Take `CC(C)c1cnn2c(NCc3ccccc3-c3nccc4cc(NC(=O)/C=C/CN(C)C)ccc34)nc(N3CCC(N)CC3)nc12` [Compound 11]: the IC50 in [1], in assay [2] (CDK3/CycC), in assay [2] (CDK3/CycE1), in [3], in assay [4] and in assay [5] (CDK9/CycK) was more than 10 µM each time. Moreover, the half-maximal inhibitory concentration (IC50) in [5] (CDK9/CycT1), in assay [6], in assay [7] (CDK20/CycH), in assay [7] (CDK20/CycT1), in [8] and in [9] (CDK2/CycA2) was more than 10 µM throughout. Further, the IC50 – broadly, the concentration that gives 50% inhibition – in assay [9] (CDK2/CycD1) is more than 10 µM; in assay [9] (CDK2/CycE1), more than 10 µM; in assay [10], 0.025 µM; in assay [11] (CDK6/CycD1), more than 10 µM; in [11] (CDK6/CycD2), more than 10 µM; in assay [11] (CDK6/CycD3) it was more than 10 µM.
